Assay results from patent US9255295B2, “Method for evaluating the sensitizing potential of a test compound” (IMMUNOSEARCH, priority 2010, dated 2016).
Like-named read-outs stand apart in the source and are kept apart here.

Assays:
[1] = system: ARE gene family (AKR1B10, AKR1C1, AKR1C2, CYP1B1, FTH1P, FTL, G6PD, GCLM, NQO2, SLC7A11, TXNRD1, UGT1A1, UGT1A9, YWHAZ, CD36, CYP1A1, GCLC, HMOX1, NQO1, PSME2 …); details: human, 6 h
[2] = system: genes specific for sensitization (BRAK, CTSS, DAPK2, FABP4, HSP27, IL18, HSP90, IL1R2, TPSAB1, CXCR1, DEFB1, DHFR, EHF, IVL, KRT4, MELANA, NGAL, PDZK1IP1, PI3 …); assay: Expression of the other (non-ARE) sensitization-specific genes in EPISKIN reconstructed skin (quantitative RT-PCR); assay type: cell-based, human; details: for BRAK expression / CTSS expression / CXCR1 expression / DAPK2 expression / DEFB1 expression / DHFR expression / EHF expression / FABP4 expression / HSP27 expression / HSP90 expression / IL18 expression / IVL expression / KRT4 expression / MELANA expression / NGAL expression / P13 expression / PDZK1iP1 expression / SERPINB3 expression: compared to the control;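 for CTSS NUMBER OF GENES grade: grade scored against expression in the control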;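 for CXCR1 NUMBER OF GENES grade: grade scored against expression in the control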;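 for DAPK2 NUMBER OF GENES grade: grade scored against expression in the control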

In the case of `CC(O)C(=O)O` (stereo not drawn) [Lactic acid (cys pos), Lactic acid], the CD36 expression ([1]; 1 %) is reported as 1.1, the S100A8 expression ([1]; 1 %) is reported as 0.8 and the CD36 expression ([1]; 10 %) is reported as 1.1. It also gave an S100A8 expression ([1]; 10 %) of 1.0, a CD36 expression ([1]; 50 %) of 0.9 and an S100A8 expression ([1]; 50 %) of 1.1. The “BRAK NUMBER OF GENES grade” value ([2]; 1%) was 0 (if this expression is lower, the grade is 0), the “CTSS NUMBER OF GENES grade” value ([2]; 1%) was 0 (if this expression is lower, the grade is 0) and the “CXCR1 NUMBER OF GENES grade” value ([2]; 1%) was 0 (if this expression is lower, the grade is 0). For the same compound, the “DAPK2 NUMBER OF GENES grade” value ([2]; 1%) was 0 (if this expression is lower, the grade is 0), the “DEFB1 NUMBER OF GENES grade” value ([2]; 1%) was 0 (if this expression is lower, the grade is 0) and the “DHFR NUMBER OF GENES grade” value ([2]; 1%) was 0 (if this expression is lower, the grade is 0). The “EHF NUMBER OF GENES grade” value ([2]; 1%) was 0 (if this expression is lower, the grade is 0), the “FABP4 NUMBER OF GENES grade” value ([2]; 1%) was 0 (if this expression is lower, the grade is 0) and the “HSP27 NUMBER OF GENES grade” value ([2]; 1%) was 0 (if this expression is lower, the grade is 0). For the same compound, the “HSP90 NUMBER OF GENES grade” value ([2]; 1%) was 0 (if this expression is lower, the grade is 0), the “IL18 NUMBER OF GENES grade” value ([2]; 1%) was 0 (if this expression is lower, the grade is 0) and the “IVL NUMBER OF GENES grade” value ([2]; 1%) was 0 (if this expression is lower, the grade is 0). For the same compound, the “KRT4 NUMBER OF GENES grade” value ([2]; 1%) was 0 (if this expression is lower, the grade is 0), the “MELANA NUMBER OF GENES grade” value ([2]; 1%) was 0 (if this expression is lower, the grade is 0) and the “NGAL NUMBER OF GENES grade” value ([2]; 1%) was 0 (if this expression is lower, the grade is 0). For the same compound, the “P13 NUMBER OF GENES grade” value ([2]; 1%) was 0 (if this expression is lower, the grade is 0), the “PDZK1iP1 NUMBER OF GENES grade” value ([2]; 1%) was 0 (if this expression is lower, the grade is 0) and the “SERPINB3 NUMBER OF GENES grade” value ([2]; 1%) was 0 (if this expression is lower, the grade is 0). The “TOTAL SENS (number of genes)” value ([2]; 1%) was 0, the BRAK expression ([2]; 1%) was 0.8 and the CTSS expression ([2]; 1%) was 1.0. The CXCR1 expression ([2]; 1%) was 0.7, the DAPK2 expression ([2]; 1%) was 1.2 and the DEFB1 expression ([2]; 1%) was 0.9. The DHFR expression ([2]; 1%) was 0.9, the EHF expression ([2]; 1%) was 0.9 and the FABP4 expression ([2]; 1%) was 0.7. The HSP27 expression ([2]; 1%) was 1.0, the HSP90 expression ([2]; 1%) was 1.0 and the IL18 expression ([2]; 1%) was 0.9. The IVL expression ([2]; 1%) was 1.0, the KRT4 expression ([2]; 1%) was 0.9 and the MELANA expression ([2]; 1%) was 0.7. For the same compound, the NGAL expression ([2]; 1%) was 0.9, the P13 expression ([2]; 1%) was 0.8 and the PDZK1iP1 expression ([2]; 1%) was 1.0. The SERPINB3 expression ([2]; 1%) was 0.9, the “BRAK NUMBER OF GENES grade” value ([2]; 10%) was 0 (if this expression is lower, the grade is 0) and the “CTSS NUMBER OF GENES grade” value ([2]; 10%) was 0 (if this expression is lower, the grade is 0). For the same compound, the “CXCR1 NUMBER OF GENES grade” value ([2]; 10%) was 0 (if this expression is lower, the grade is 0), the “DAPK2 NUMBER OF GENES grade” value ([2]; 10%) was 0 (if this expression is lower, the grade is 0) and the “DEFB1 NUMBER OF GENES grade” value ([2]; 10%) was 0 (if this expression is lower, the grade is 0). The “DHFR NUMBER OF GENES grade” value ([2]; 10%) was 0 (if this expression is lower, the grade is 0), the “EHF NUMBER OF GENES grade” value ([2]; 10%) was 0 (if this expression is lower, the grade is 0) and the “FABP4 NUMBER OF GENES grade” value ([2]; 10%) was 0 (if this expression is lower, the grade is 0). The “HSP27 NUMBER OF GENES grade” value ([2]; 10%) was 0 (if this expression is lower, the grade is 0), the “HSP90 NUMBER OF GENES grade” value ([2]; 10%) was 0 (if this expression is lower, the grade is 0) and the “IL18 NUMBER OF GENES grade” value ([2]; 10%) was 0 (if this expression is lower, the grade is 0). The “IVL NUMBER OF GENES grade” value ([2]; 10%) was 0 (if this expression is lower, the grade is 0), the “KRT4 NUMBER OF GENES grade” value ([2]; 10%) was 0 (if this expression is lower, the grade is 0) and the “MELANA NUMBER OF GENES grade” value ([2]; 10%) was 0 (if this expression is lower, the grade is 0). The “NGAL NUMBER OF GENES grade” value ([2]; 10%) was 0 (if this expression is lower, the grade is 0), the “P13 NUMBER OF GENES grade” value ([2]; 10%) was 0 (if this expression is lower, the grade is 0) and the “PDZK1iP1 NUMBER OF GENES grade” value ([2]; 10%) was 0 (if this expression is lower, the grade is 0). For the same compound, the “SERPINB3 NUMBER OF GENES grade” value ([2]; 10%) was 0 (if this expression is lower, the grade is 0), the “TOTAL SENS (number of genes)” value ([2]; 10%) was 0 and the BRAK expression ([2]; 10%) was 1.0. It also gave a CTSS expression ([2]; 10%) of 1.1, a CXCR1 expression ([2]; 10%) of 0.7 and a DAPK2 expression ([2]; 10%) of 1.1. It also gave a DEFB1 expression ([2]; 10%) of 1.0, a DHFR expression ([2]; 10%) of 1.0 and an EHF expression ([2]; 10%) of 0.9. The FABP4 expression ([2]; 10%) was 0.9, the HSP27 expression ([2]; 10%) was 0.9 and the HSP90 expression ([2]; 10%) was 0.9. For the same compound, the IL18 expression ([2]; 10%) was 1.0, the IVL expression ([2]; 10%) was 0.9 and the KRT4 expression ([2]; 10%) was 0.8. It also gave an MELANA expression ([2]; 10%) of 0.8, an NGAL expression ([2]; 10%) of 1.0 and a P13 expression ([2]; 10%) of 0.8. For the same compound, the PDZK1iP1 expression ([2]; 10%) was 1.0, the SERPINB3 expression ([2]; 10%) was 1.1 and the “BRAK NUMBER OF GENES grade” value ([2]; 50%) was 0 (if this expression is lower, the grade is 0). The “CTSS NUMBER OF GENES grade” value ([2]; 50%) was 1 (If the expression is greater than 1.3 compared to the control, a grade of 11s given), the “CXCR1 NUMBER OF GENES grade” value ([2]; 50%) was 0 (if this expression is lower, the grade is 0) and the “DAPK2 NUMBER OF GENES grade” value ([2]; 50%) was 0 (if this expression is lower, the grade is 0). For the same compound, the “DEFB1 NUMBER OF GENES grade” value ([2]; 50%) was 0 (if this expression is lower, the grade is 0), the “DHFR NUMBER OF GENES grade” value ([2]; 50%) was 0 (if this expression is lower, the grade is 0) and the “EHF NUMBER OF GENES grade” value ([2]; 50%) was 0 (if this expression is lower, the grade is 0). For the same compound, the “FABP4 NUMBER OF GENES grade” value ([2]; 50%) was 0 (if this expression is lower, the grade is 0), the “HSP27 NUMBER OF GENES grade” value ([2]; 50%) was 0 (if this expression is lower, the grade is 0) and the “HSP90 NUMBER OF GENES grade” value ([2]; 50%) was 0 (if this expression is lower, the grade is 0). For the same compound, the “IL18 NUMBER OF GENES grade” value ([2]; 50%) was 0 (if this expression is lower, the grade is 0), the “IVL NUMBER OF GENES grade” value ([2]; 50%) was 0 (if this expression is lower, the grade is 0) and the “KRT4 NUMBER OF GENES grade” value ([2]; 50%) was 0 (if this expression is lower, the grade is 0). For the same compound, the “MELANA NUMBER OF GENES grade” value ([2]; 50%) was 0 (if this expression is lower, the grade is 0), the “NGAL NUMBER OF GENES grade” value ([2]; 50%) was 0 (if this expression is lower, the grade is 0) and the “P13 NUMBER OF GENES grade” value ([2]; 50%) was 0 (if this expression is lower, the grade is 0). For the same compound, the “PDZK1iP1 NUMBER OF GENES grade” value ([2]; 50%) was 0 (if this expression is lower, the grade is 0), the “SERPINB3 NUMBER OF GENES grade” value ([2]; 50%) was 0 (if this expression is lower, the grade is 0) and the “TOTAL SENS (number of genes)” value ([2]; 50%) was 1. The BRAK expression ([2]; 50%) was 0.7, the CTSS expression ([2]; 50%) was 1.4 and the CXCR1 expression ([2]; 50%) was 0.8. It also gave a DAPK2 expression ([2]; 50%) of 1.1, a DEFB1 expression ([2]; 50%) of 1.1 and a DHFR expression ([2]; 50%) of 0.9. For the same compound, the EHF expression ([2]; 50%) was 0.9, the FABP4 expression ([2]; 50%) was 0.8 and the HSP27 expression ([2]; 50%) was 0.8. It also gave an HSP90 expression ([2]; 50%) of 0.9, an IL18 expression ([2]; 50%) of 0.8 and an IVL expression ([2]; 50%) of 0.9. For the same compound, the KRT4 expression ([2]; 50%) was 0.8, the MELANA expression ([2]; 50%) was 0.6 and the NGAL expression ([2]; 50%) was 1.0. The P13 expression ([2]; 50%) was 0.9, the PDZK1iP1 expression ([2]; 50%) was 1.0 and the SERPINB3 expression ([2]; 50%) was 1.2.
